In patent publication US12509449B2, “Anthelmintic compounds comprising a quinoline structure” (Intervet Inc., priority 2019, dated 2025):

How the values were obtained:
[1] = molecular target: T1, human Maxi K channel (BK channel), KCNMA1 (KCa1.1) and beta1 (KCNMB1) subunits (Homo sapiens, UniProt Q12791); test: Agonistic activity at the human Maxi K channel (BK channel), membrane potential (FLIPR) in transfected CHO K1 cells; format: cell-based; conditions: membrane potential dye, 70 mM KCl
T1 construct: expressed in transfected cells; host or cells: CHO K1
Excerpt: A CHO K1 cell line was stably transfected with the KCNMA1 (KCa1.1, U11058) and beta1 (KCNMB1) subunits of the human Maxi K channel (Ponte et al, Molecular Pharmacology 2012, 81(4), 567-577).
The complete measurement takes 150 s.

Haemonchus contortus [2] = test: In vitro assay Haemonchus contortus exsheathed L3 larvae motility; format: cell-based; conditions: 168 h, incubation 7 days, automated microscopy, read-out: ED50 against Haemonchus contortus (motility reduced by 50%)
Method: Solutions of compounds with declining concentrations in DMSO were prepared, diluted with nutrient medium and distributed to 96 well microtiterplates. […]3 larvae of Haemonchus contortus were incubated for 20 min at 37° C. in a water bath, separated by centrifugation and added to the wells with 300 Larvae/well. After incubation for 7 days motility was assessed by automated microscopy. Ivermectin was used as positive control, DMSO as negative control and ED50 values were calculated which represent the concentration for an individual compound that reduces motility by 50% with respect to the […].

Ascaridia galli L3 = test: In vitro assay Ascaridia galli larval stage 3, minimum effective concentration; format: cell-based; conditions: 20 larvae per well, microscopic examination, read-out: MEC (minimum effective concentration) against Ascaridia galli L3
Excerpt: (§1) […] galli (intestinal roundworm of chicken), larval stage 3 (“L3”); and Oesophagostumum dentatum (nodular worm of swine), larval stages 3 and 4 (respectively “L3” and “L4”) where suspended in a nutrient medium and distributed to 96 well plates with 20 larvae per well. The wells were spiked DMSO solutions of the compounds with declining concentration.

[3] = system: Oesophagostumum dentatum L3; test: In vitro assay Oesophagostumum dentatum larval stage 3, minimum effective concentration; format: cell-based; conditions: 20 larvae per well, microscopic examination; read-out: MEC (minimum effective concentration) against Oesophagostumum dentatum L3
Excerpt: as §1

[4] = system: Acanthocheilonema viteae L1; test: In vitro assay Acanthocheilonema viteae L1 (microfilaria) motility; format: cell-based; conditions: 72 h, incubation 3 days, read-out: EC50 Acanthocheilonema viteae L1, reduction in motility
Method: (§2) Approximately 500 A. viteae microfilaria were added to a microtiter plate containing a nutrient medium and the test compound in DMSO at varying concentrations. After incubation for 3 days, activity was evaluated as reduction in motility as compared to DMSO as negative control. Compounds were tested in duplicates. Based on the concentration response curves EC50 values were calculated.

[5] = molecular target: Caenorhabditis elegans slo-1a (Caenorhabditis elegans, UniProt Q95V25); test: Agonistic activity at C. elegans Slo-1a, membrane potential (FLIPR) in transfected CHO K1 cells; conditions: EC50 agonistic activity at C. elegans Slo-1a, membrane potential dye, 70 mM KCl
Method: A CHO K1 cell line stably transfected with the Caenorhabditis elegans slo-1a (accession no Y51A2D.19a) was established. Cells were seeded in microtiter plates (black 384-well MTP, clear bottom) in a concentration of 10,000 cells/well in 25 μl medium and cultured for 20 to 24 hours at 37° C. and 5% CO2. The cell medium was removed, and the cells washed with Tyrode's solution. 1 of FMP-dye Blue-Tyrode's was added to each well and incubated at room temperature for 30 min.
For the membrane potential measurements, the prepared cell plate and substance plate were placed in the FLIPR Tetra (Molecular Devices). The baseline measurement of the fluorescence was stared for 20 sec (Exc. 510-545 nm, Emm. 565-625 nm). The cells were depolarized by addition of 25p of the diluted test compounds (final assay concentration of the KCl-Tyrode: 70 mM KCl, 2 mM CaCl2), 1 mM MgCl2, 0.8 mM NaH2PO4, 5 mM Glucose, 28 mM Hepes, pH 7.4, including the voltage sensitive dye). The complete measurement takes 150 s.
EC50 values were determined in triplicate utilizing compound dilution series. The data were determined at least in two independent tests. The data were proceeded by using the ActivityBase XE Runner software (IDBS) for curve fitting and calculation of the half-maximal effective concentration.

Dirofilaria immitis L1 = test: In vitro assay Dirofilaria immitis L1 (microfilaria) motility; format: cell-based; conditions: 72 h, incubation 3 days, read-out: EC50 Dirofilaria immitis L1, reduction in motility
Method: as §2, with “D. immitis” for “A. viteae”

[6] = system: Oesophagostumum dentatum L4; test: In vitro assay Oesophagostumum dentatum larval stage 4, minimum effective concentration; format: cell-based; conditions: 20 larvae per well, microscopic examination; read-out: MEC (minimum effective concentration) against Oesophagostumum dentatum L4
Excerpt: as §1

Dirofilaria immitis L4 = test: In vitro assay Dirofilaria immitis L4 motility; format: cell-based; conditions: 72 h, 10 larvae L4, incubation 3 days, read-out: EC50 Dirofilaria immitis L4, reduction in motility
Method: as §2, with “10 larvae L4 of D. immitis” for “Approximately 500 A. viteae microfilaria”

Haemonchus contortus [7] = test: In vivo efficacy against Haemonchus contortus in jirds; parameters: species or system Haemonchus contortus in jirds (Meriones unguiculatus); conditions: necropsy three days after treatment
Method: Compounds according to this invention were tested in vivo using Haemonchus contortus in jirds (Meriones unguiculatus). The jirds were orally infected with approximately 1500 third-stage larvae of Haemonchus contortus. Ten days after infection, the jirds in the treatment groups were treated once either orally or subcutaneously with compounds at a dose of […]. For treatment, compounds were dissolved in a mixture of 10% Transcutol, 10% Cremophor EL and 80% physiological sodium chloride solution. Three days after treatment, the jirds were necropsied, and the larvae burden in the stomach was determined. The efficacy was defined as the reduction of the mean larvae count in the infected jirds of the treatment group in comparison to the infected jirds in an untreated control group (negative control).

Chain of Caenorhabditis elegans slo-1a (Q95V25 whole entry): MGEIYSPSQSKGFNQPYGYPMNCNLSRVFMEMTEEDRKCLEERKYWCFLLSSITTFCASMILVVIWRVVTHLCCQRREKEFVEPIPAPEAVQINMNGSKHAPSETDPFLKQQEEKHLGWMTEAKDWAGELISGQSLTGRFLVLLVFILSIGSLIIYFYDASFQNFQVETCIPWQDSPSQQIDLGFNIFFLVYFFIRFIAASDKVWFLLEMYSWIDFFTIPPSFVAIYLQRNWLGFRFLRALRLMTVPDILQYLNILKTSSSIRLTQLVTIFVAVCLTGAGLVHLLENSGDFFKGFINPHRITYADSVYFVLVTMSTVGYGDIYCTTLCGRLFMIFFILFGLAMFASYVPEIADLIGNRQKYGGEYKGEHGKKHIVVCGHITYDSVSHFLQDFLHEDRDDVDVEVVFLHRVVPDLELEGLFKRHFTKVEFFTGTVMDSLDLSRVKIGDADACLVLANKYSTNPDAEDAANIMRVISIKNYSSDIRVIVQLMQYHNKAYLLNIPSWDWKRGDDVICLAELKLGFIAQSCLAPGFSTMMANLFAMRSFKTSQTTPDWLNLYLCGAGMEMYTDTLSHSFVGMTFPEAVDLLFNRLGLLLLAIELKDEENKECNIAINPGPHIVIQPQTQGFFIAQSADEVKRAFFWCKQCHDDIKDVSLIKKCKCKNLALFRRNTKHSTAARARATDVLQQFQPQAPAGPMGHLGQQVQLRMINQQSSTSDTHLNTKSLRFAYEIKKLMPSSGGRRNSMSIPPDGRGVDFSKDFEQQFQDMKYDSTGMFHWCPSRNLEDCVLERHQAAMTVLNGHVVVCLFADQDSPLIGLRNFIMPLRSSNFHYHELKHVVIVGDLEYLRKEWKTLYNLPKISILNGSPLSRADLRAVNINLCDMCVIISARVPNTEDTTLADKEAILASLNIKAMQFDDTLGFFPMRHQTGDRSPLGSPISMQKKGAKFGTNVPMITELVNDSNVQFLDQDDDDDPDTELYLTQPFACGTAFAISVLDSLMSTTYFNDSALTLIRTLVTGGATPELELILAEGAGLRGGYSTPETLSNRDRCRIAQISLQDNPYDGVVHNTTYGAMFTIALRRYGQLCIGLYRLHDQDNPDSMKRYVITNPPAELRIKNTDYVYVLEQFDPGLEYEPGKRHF
T1 sequence (Q12791 1-1178 isoform Q12791-5): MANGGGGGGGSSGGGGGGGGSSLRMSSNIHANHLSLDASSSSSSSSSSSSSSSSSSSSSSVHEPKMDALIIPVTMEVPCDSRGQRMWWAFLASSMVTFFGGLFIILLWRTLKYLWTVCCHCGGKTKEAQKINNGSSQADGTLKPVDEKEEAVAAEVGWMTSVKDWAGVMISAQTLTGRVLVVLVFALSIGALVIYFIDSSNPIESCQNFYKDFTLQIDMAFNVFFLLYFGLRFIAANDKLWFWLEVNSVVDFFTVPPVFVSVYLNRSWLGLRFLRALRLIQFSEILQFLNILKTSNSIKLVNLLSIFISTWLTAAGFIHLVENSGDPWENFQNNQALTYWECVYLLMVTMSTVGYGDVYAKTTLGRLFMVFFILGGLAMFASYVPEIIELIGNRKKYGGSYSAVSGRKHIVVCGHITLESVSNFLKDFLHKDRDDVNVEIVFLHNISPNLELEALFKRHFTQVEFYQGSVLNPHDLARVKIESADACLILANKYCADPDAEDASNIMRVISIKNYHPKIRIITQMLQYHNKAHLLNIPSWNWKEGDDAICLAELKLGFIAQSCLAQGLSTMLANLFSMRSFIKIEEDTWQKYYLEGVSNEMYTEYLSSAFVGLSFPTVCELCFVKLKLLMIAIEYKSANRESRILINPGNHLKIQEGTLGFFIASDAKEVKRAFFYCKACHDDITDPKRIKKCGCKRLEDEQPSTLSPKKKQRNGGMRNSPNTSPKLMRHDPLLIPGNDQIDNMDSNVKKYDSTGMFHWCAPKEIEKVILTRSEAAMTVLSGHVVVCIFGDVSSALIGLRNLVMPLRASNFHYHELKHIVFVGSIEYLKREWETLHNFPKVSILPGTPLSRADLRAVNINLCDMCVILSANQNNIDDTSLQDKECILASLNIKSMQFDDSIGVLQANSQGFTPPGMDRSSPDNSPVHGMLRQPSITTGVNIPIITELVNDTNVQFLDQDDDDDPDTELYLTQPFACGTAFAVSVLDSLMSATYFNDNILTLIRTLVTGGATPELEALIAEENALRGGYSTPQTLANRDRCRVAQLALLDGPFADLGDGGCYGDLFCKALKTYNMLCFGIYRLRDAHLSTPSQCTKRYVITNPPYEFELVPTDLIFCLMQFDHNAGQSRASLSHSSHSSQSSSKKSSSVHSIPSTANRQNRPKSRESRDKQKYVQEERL
T1 sequence (Q16558 whole entry partner): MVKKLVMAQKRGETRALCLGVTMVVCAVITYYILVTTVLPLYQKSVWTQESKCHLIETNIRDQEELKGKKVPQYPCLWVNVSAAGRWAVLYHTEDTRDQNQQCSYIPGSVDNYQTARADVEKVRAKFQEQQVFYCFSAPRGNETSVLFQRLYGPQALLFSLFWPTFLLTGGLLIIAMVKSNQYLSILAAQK

| Compound | EC50 [1] | EC50 (Haemonchus contortus [2]) | minimal effective concentration (Ascaridia galli L3) | minimal effective concentration [3] | EC50 [5] | further results |
| --- | --- | --- | --- | --- | --- | --- |
| CCNc1c(NC(=O)C2CCOc3ccccc32)cnc2c(-c3cccc(Cl)c3Cl)cccc12 (stereo not drawn) [Compound 86] | > 30 µM | < 50 µM | ≤ 50 µM | – | – | – |
| CC(C)Oc1c(NC(=O)c2cccc3ccccc23)cnc2c(-c3cc(Cl)cc(Cl)c3)c(F)ccc12 [Compound 147] | > 30 µM | – | – | ≤ 50 µM | – | EC50 [4]: < 10 µM |
| CN(C)c1c(NC(=O)C2CCOc3ccccc32)cnc2c(-c3cccc(Cl)c3F)cccc12 (stereo not drawn) [Compound 42] | > 30 µM | < 50 µM | – | – | < 1 µM | – |
| O=C(Nc1cnc2c(-c3cc(Cl)cc(Cl)c3)cccc2c1N1CCOCC1)C1CCCc2ccccc21 (stereo not drawn) [Compound 8] | 10 to 30 µM | < 50 µM | – | – | < 1 µM | – |
| O=C(Nc1cnc2c(-c3cc(Cl)cc(Cl)c3)c(F)ccc2c1N1CCOCC1)C1CCCc2ccccc21 (stereo not drawn) [Compound 116] | > 30 µM | < 50 µM | ≤ 50 µM | – | < 1 µM | – |
| CN(C)c1c(NC(=O)c2cccc3ccccc23)cnc2c(-c3cccc(Cl)c3Cl)cccc12 [Compound 31] | > 30 µM | < 50 µM | – | – | < 1 µM | – |
| COc1cccc(C(C)C(=O)Nc2cnc3c(-c4cccc(Cl)c4Cl)cccc3c2N(C)C)c1 (stereo not drawn) [Compound 29] | > 30 µM | – | ≤ 50 µM | – | < 10 µM | EC50 (Dirofilaria immitis L1): < 10 µM; minimal effective concentration [6]: ≤ 50 µM |
| CN(C)c1c(NC(=O)c2cccc3ccccc23)cnc2c(-c3cc(Cl)cc(Cl)c3)c(F)ccc12 [Compound 145] | > 30 µM | < 50 µM | – | – | < 1 µM | – |
| O=C(Nc1cnc2c(-c3cc(Cl)cc(Cl)c3)cccc2c1O)C1CCCc2ccccc21 (stereo not drawn) [Compound 63] | > 30 µM | – | – | – | – | EC50 (Dirofilaria immitis L1): < 10 µM |
| CCN(C(=O)C1CCOc2ccccc21)c1cnc2c(-c3cc(Cl)cc(Cl)c3)cccc2c1N(C)C (stereo not drawn) [Compound 162] | > 30 µM | – | ≤ 50 µM | ≤ 50 µM | – | EC50 [4]: < 10 µM |
| CCN(C(=O)C1CCOc2ccccc21)c1cnc2c(-c3cccc(Cl)c3Cl)cccc2c1N1CCOCC1 (stereo not drawn) [Compound 159] | > 30 µM | – | ≤ 50 µM | – | – | EC50 [4]: < 10 µM |
| CN(C)c1c(NC(=O)[C@H]2CCCc3ccccc32)cnc2c(-c3cc(Cl)cc(Cl)c3)cccc12 [Compound 156] | > 30 µM | < 50 µM | – | – | < 1 µM | – |
| CC(C(=O)Nc1cnc2c(-c3cccc(Cl)c3Cl)cccc2c1N(C)C)c1cccc(Cl)c1 (stereo not drawn) [Compound 28] | > 30 µM | – | ≤ 50 µM | – | – | EC50 (Dirofilaria immitis L1): < 10 µM; minimal effective concentration [6]: ≤ 50 µM |
| CN(C)c1c(NC(=O)Cc2ccccc2)cnc2c(-c3cc(Cl)cc(Cl)c3)cccc12 [Compound 3] | > 30 µM | – | ≤ 50 µM | ≤ 50 µM | < 10 µM | EC50 (Dirofilaria immitis L4): < 1 µM |
| CC(C(=O)Nc1cnc2c(-c3cccc(Cl)c3Cl)cccc2c1N(C)C)c1ccccc1 (stereo not drawn) [Compound 24] | > 30 µM | < 50 µM | ≤ 50 µM | ≤ 50 µM | < 10 µM | – |
| CCN(C(=O)C1CCOc2ccccc21)c1cnc2c(-c3cc(Cl)cc(Cl)c3)cccc2c1N1CCOCC1 (stereo not drawn) [Compound 163] | > 30 µM | – | – | – | – | EC50 [4]: < 10 µM; minimal effective concentration [6]: ≤ 50 µM |
| CCOc1c(NC(=O)C2CCc3ccccc32)cnc2c(-c3cc(Cl)cc(Cl)c3)cccc12 (stereo not drawn) [Compound 79] | > 30 µM | < 50 µM | ≤ 50 µM | ≤ 50 µM | < 10 µM | – |
| O=C(Nc1cnc2c(-c3cccc(Cl)c3Cl)c(F)ccc2c1N1CCOCC1)c1cccc2ccccc12 [Compound 151] | – | – | – | – | – | reduction of the Haemonchus contortus count (Haemonchus contortus [7]; administered orally once at 10 mg/kg bw): at least 80%; reduction of the Haemonchus contortus count (Haemonchus contortus [7]; administered subcutaneously once at 10 mg/kg bw): at least 80% |
| O=C(Nc1cnc2c(-c3cccc(Cl)c3Cl)cccc2c1N1CCC(O)C1)C1CCOc2ccccc21 (stereo not drawn) [Compound 37] | 10 to 30 µM | – | ≤ 50 µM | – | < 1 µM | minimal effective concentration [6]: ≤ 50 µM |
| CCN(C)c1c(NC(=O)C2CCCc3ccccc32)cnc2c(-c3cccc(Cl)c3Cl)cccc12 (stereo not drawn) [Compound 98] | > 30 µM | – | – | – | – | EC50 [4]: < 10 µM |
| COc1c(NC(=O)C(C)c2ccccc2)cnc2c(-c3cccc(Cl)c3Cl)cccc12 (stereo not drawn) [Compound 11] | > 30 µM | – | – | – | – | EC50 (Dirofilaria immitis L1): < 10 µM |
| CN(C(=O)C1CCOc2ccccc21)c1cnc2c(-c3cccc(Cl)c3Cl)cccc2c1N1CCOCC1 (stereo not drawn) [Compound 158] | > 30 µM | – | – | ≤ 50 µM | – | minimal effective concentration [6]: ≤ 50 µM |
| CC(C)Oc1c(NC(=O)C2CCOc3ccccc32)cnc2c(-c3cc(Cl)cc(Cl)c3)c(F)ccc12 (stereo not drawn) [Compound 127] | > 30 µM | – | ≤ 50 µM | ≤ 50 µM | – | EC50 [4]: < 10 µM |
